Experimental data from the supplement of paper PMC12137928.
Counter-ions that a name gives are not always drawn.

System: HCT116
Details: 72 h
Method in brief: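 HCT116 cells were plated at 250 per well in 1536-well plates and allowed 5 h to attach. CellTiter-Glo luminescence was normalized to vehicle as 0% and positive control as -100%, followed by pattern correction. Four-parameter Hill fits provided IC50 and maximal efficacy.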

SMILES	IC50 cell viability (ICRF193 0 nM) [µM]	IC50 cell viability (ICRF193 200 nM) [µM]
C=CCC1(C(C)CC)C(=O)NC(=O)NC1=O (stereo unspecified) [Talbutal]	> 45.8	> 45.8
C=CCN1CCc2nc(N)sc2CC1 [Talipexole]	> 45.8	> 45.8
CN1C(=O)C[C@@H](C(=O)N[C@@H](Cc2c[nH]cn2)C(=O)N2CCC[C@H]2C(N)=O)NC1=O [Taltirelin]	> 45.8	> 45.8
CCOc1ccccc1OCCN[C@H](C)Cc1ccc(OC)c(S(N)(=O)=O)c1 [Tamsulosin hydrochloride]	> 45.8	> 45.8
O=C1[C@@H]2[C@H]3CC[C@H](C3)[C@@H]2C(=O)N1CCCCN1CCN(c2ncccn2)CC1 [Tandospirone]	> 45.8	> 45.8
CCC(=O)NC[C@@H]1C[C@H]1c1cccc2c1CCO2 [Tasimelteon]	> 45.8	> 45.8
NCCS(=O)(=O)O [Taurine]	> 45.8	> 45.8
CCCCOC(=O)C(=O)Nc1cccc(-c2nnn[nH]2)c1 [Tazanolast]	> 45.8	> 45.8
CCOC(=O)c1ccc(C#Cc2ccc3c(c2)C(C)(C)CCS3)nc1 [Tazarotene]	> 45.8	> 45.8
C[C@]1(Cn2ccnn2)[C@H](C(=O)O)N2C(=O)C[C@H]2S1(=O)=O [Tazobactam sodium]	> 45.8	> 45.8
C[C@@H](O)[C@H]1C(=O)N2C(C(=O)OCOC(=O)C(C)(C)C)=C(SC3CN(C4=NCCS4)C3)[C@H](C)[C@H]12 [Tebipenem pivoxil]	> 45.8	> 45.8
O=c1[nH]c(=O)n(C2CCCO2)cc1F (stereo unspecified) [Tegafur]	> 45.8	> 45.8
Cc1cn([C@@H]2C[C@@H](O)[C@H](CO)O2)c(=O)[nH]c1=O [Telbivudine]	> 45.8	> 45.8
CCCc1nc2c(C)cc(-c3nc4ccccc4n3C)cc2n1Cc1ccc(-c2ccccc2C(=O)O)cc1 [Telmisartan]	> 45.8	> 45.8
CCOC(=O)[C@H](CCc1ccccc1)N[C@H]1CS[C@H](c2cccs2)CN(CC(=O)O)C1=O [Temocapril hydrochloride]	> 45.8	> 45.8
Cn1nnc2c(C(N)=O)ncn2c1=O [Temozolomide]	> 45.8	> 45.8
COc1ccc2[nH]c([S+]([O-])Cc3ncc(C)c(OC)c3C)nc2n1 (stereo unspecified) [Tenatoprazole]	> 45.8	> 45.8
Cc1cc(N2CCN([C@@H]3CN[C@H](C(=O)N4CCSC4)C3)CC2)n(-c2ccccc2)n1 [Teneligliptin]	> 45.8	> 45.8
CC(C)OC(=O)OCOP(=O)(CO[C@H](C)Cn1cnc2c(N)ncnc21)OCOC(=O)OC(C)C [Tenofovir disoproxil fumarate]	> 45.8	> 45.8
CN1C(C(=O)Nc2ccccn2)=C(O)c2sccc2S1(=O)=O [Tenoxicam]	> 45.8	> 45.8
CC(=O)CC/C=C(\C)CC/C=C(\C)CC/C=C(\C)CCC=C(C)C [Teprenone]	> 45.8	> 45.8

SMILES	IC50 cell viability (ICRF193 0 nM) [µM]	IC50 cell viability (ICRF193 200 nM) [µM]
COc1cc2nc(N3CCN(C(=O)C4CCCO4)CC3)nc(N)c2cc1OC (stereo unspecified) [Terazosin hydrochloride]	> 45.8	> 45.8
CN(C/C=C/C#CC(C)(C)C)Cc1cccc2ccccc12 [Terbinafine]	> 45.8	> 45.8
CC(C)(C)NCC(O)c1cc(O)cc(O)c1 (stereo unspecified) [Terbutaline hemisulfate]	> 45.8	> 45.8
CC(C)N1CCN(c2ccc(OCC3COC(Cn4cncn4)(c4ccc(Cl)cc4Cl)O3)cc2)CC1 (stereo unspecified) [Terconazole]	> 45.8	> 45.8
CC(C)(C)c1ccc(C(O)CCCN2CCC(C(O)(c3ccccc3)c3ccccc3)CC2)cc1 (stereo unspecified) [Terfenadine]	> 45.8	> 45.8
CCN(CC)C(=O)N[C@H]1C[C@@H]2c3cccc4[nH]cc(c34)C[C@H]2N(C)C1 [Terguride]	> 45.8	> 45.8
NCCCC[C@H](NC(=O)[C@@H]1CCCN1C(=O)[C@@H]1CSSC[C@H](NC(=O)CNC(=O)CNC(=O)CN)C(=O)N[C@@H](Cc2ccc(O)cc2)C(=O)N[C@@H](Cc2ccccc2)C(=O)N[C@@H](CCC(N)=O)C(=O)N[C@@H](CC(N)=O)C(=O)N1)C(=O)NCC(N)=O [Terlipressin]	> 45.8	> 45.8
CC(CC(c1ccccc1)c1ccccc1)NC(C)(C)C (stereo unspecified) [Terodiline hydrochloride]	> 45.8	> 45.8
CC1=CCC(O)(C(C)C)CC1 (stereo unspecified) [Terpineol]	> 45.8	> 45.8
CCO[C@@H](Cc1ccc(OCCc2ccc(OS(C)(=O)=O)cc2)cc1)C(=O)O [Tesaglitazar]	> 45.8	> 45.8
C[C@]12CC[C@H]3[C@@H](CCC4=CC(=O)CC[C@@]43C)[C@@H]1CC[C@@H]2OC(=O)CCc1ccccc1 [Testosterone 17-phenylpropionate]	> 45.8	> 45.8
CCCCCCCCCCC(=O)O[C@H]1CC[C@H]2[C@@H]3CCC4=CC(=O)CC[C@]4(C)[C@H]3CC[C@]12C [Testosterone (undecanoate)]	> 45.8	> 45.8
CCCCCCCCCC(=O)O[C@H]1CC[C@H]2[C@@H]3CCC4=CC(=O)CC[C@]4(C)[C@H]3CC[C@]12C [Testosterone decanoate]	> 45.8	> 45.8
CC(C)CCC(=O)O[C@H]1CC[C@H]2[C@@H]3CCC4=CC(=O)CC[C@]4(C)[C@H]3CC[C@]12C [Testosterone isocaproate]	> 45.8	> 45.8
CCC(=O)O[C@H]1CC[C@H]2[C@@H]3CCC4=CC(=O)CC[C@]4(C)[C@H]3CC[C@]12C [Testosterone propionate]	> 45.8	> 45.8
COc1cc2c(cc1OC)C1CC(=O)C(CC(C)C)CN1CC2 (stereo unspecified) [Tetrabenazine Mesylate]	> 45.8	> 45.8
COc1cc2c(cc1OC)C1CC(=O)C(CC(C)C)CN1CC2 (stereo unspecified) [Tetrabenazine]	> 45.8	> 45.8
CCCCNc1ccc(C(=O)OCCN(C)C)cc1 [Tetracaine hydrochloride]	> 45.8	> 45.8
CN(C)[C@@H]1C(O)=C(C(N)=O)C(=O)[C@@]2(O)C(O)=C3C(=O)c4c(O)cccc4[C@@](C)(O)[C@H]3C[C@@H]12 [Tetracycline hydrochloride]	> 45.8	> 45.8
NCCNCCNCCNCCN [Tetraethylenepentamine]	> 45.8	> 45.8

Continued, values first:

IC50 cell viability (ICRF193 0 nM) [µM]	IC50 cell viability (ICRF193 200 nM) [µM]	SMILES
> 45.8	> 45.8	c1ccc2c(c1)CCCC2C1=NCCN1 (stereo unspecified) [Tetrahydrozoline HCl]
> 45.8	> 45.8	O=C1CCC(N2C(=O)c3ccccc3C2=O)C(=O)N1 (stereo unspecified) [Thalidomide]
> 45.8	> 45.8	CC1(C)[C@@H]2CC[C@@]1(C)[C@H](OC(=O)CSC#N)C2 [Thanite]
> 45.8	> 45.8	CN(C)CCN(Cc1ccsc1)c1ccccn1 [Thenyldiamine]
> 45.8	> 45.8	Cn1cnc2c1c(=O)[nH]c(=O)n2C [Theobromine]
> 45.8	> 45.8	Cn1c(=O)c2[nH]cnc2n(C)c1=O [Theophyllamine]
> 45.8	> 45.8	c1ccc2[nH]c(-c3cscn3)nc2c1 [Thiabendazole]
> 45.8	> 45.8	C/C(=C(\CCO)SS/C(CCO)=C(/C)N(C=O)Cc1cnc(C)nc1N)N(C=O)Cc1cnc(C)nc1N [Thiamine disulfide]
> 45.8	> 45.8	Cc1ncc(C[n+]2csc(CCO)c2C)c(N)n1 [Thiamine hydrochloride]
> 45.8	> 45.8	Cc1ncc(C[n+]2csc(CCOP(=O)(O)OP(=O)(O)O)c2C)c(N)n1 [Thiamine pyrophosphate]
> 45.8	> 45.8	CS(=O)(=O)c1ccc([C@H](O)[C@@H](COC(=O)CN)NC(=O)C(Cl)Cl)cc1 [Thiamphenicol glycinate]
> 45.8	> 45.8	CS(=O)(=O)c1ccc([C@@H](O)[C@@H](CO)NC(=O)C(Cl)Cl)cc1 [Thiamphenicol]
> 45.8	> 45.8	S=P(N1CC1)(N1CC1)N1CC1 [ThioTEPA]
> 45.8	> 45.8	N#CSCC(=O)O [Thiocyanoacetic acid sodium salt]
> 45.8	> 45.8	COc1ccc(CN(CCN(C)C)c2ncccn2)cc1 [Thonzylamine hydrochloride]
> 45.8	> 45.8	Cc1cc(OI)c(C(C)C)cc1-c1cc(C(C)C)c(OI)cc1C [Thymol iodide]
> 45.8	> 45.8	Cc1ccc(C(C)C)c(O)c1 [Thymol]
> 45.8	> 45.8	Cc1ccsc1C(=CCCN1CCC[C@@H](C(=O)O)C1)c1sccc1C [Tiagabine hydrochloride]
> 45.8	> 45.8	C=C[C@]1(C)C[C@@H](OC(=O)CSCCN(CC)CC)[C@]2(C)[C@H](C)CC[C@]3(CCC(=O)[C@H]32)[C@@H](C)[C@@H]1O [Tiamulin]
> 45.8	> 45.8	CCN(CC)CCNC(=O)c1cc(S(C)(=O)=O)ccc1OC [Tiapride hydrochloride]
> 45.8	> 45.8	CC(C(=O)O)c1ccc(C(=O)c2ccccc2)s1 (stereo unspecified) [Tiaprofenic acid]
> 45.8	> 45.8	O=C(Cn1c(=O)sc2ccc(Cl)cc21)N1CCN(CCO)CC1 [Tiaramide hydrochloride]
